In paper PMC9324199 (Angewandte Chemie (International Ed. in English), 2022):

Biological target: 5-HT2A (Homo sapiens, UniProt P28223)
Test: PDSP radioligand binding

Chain of 5-HT2A (P28223 whole entry, species assumed): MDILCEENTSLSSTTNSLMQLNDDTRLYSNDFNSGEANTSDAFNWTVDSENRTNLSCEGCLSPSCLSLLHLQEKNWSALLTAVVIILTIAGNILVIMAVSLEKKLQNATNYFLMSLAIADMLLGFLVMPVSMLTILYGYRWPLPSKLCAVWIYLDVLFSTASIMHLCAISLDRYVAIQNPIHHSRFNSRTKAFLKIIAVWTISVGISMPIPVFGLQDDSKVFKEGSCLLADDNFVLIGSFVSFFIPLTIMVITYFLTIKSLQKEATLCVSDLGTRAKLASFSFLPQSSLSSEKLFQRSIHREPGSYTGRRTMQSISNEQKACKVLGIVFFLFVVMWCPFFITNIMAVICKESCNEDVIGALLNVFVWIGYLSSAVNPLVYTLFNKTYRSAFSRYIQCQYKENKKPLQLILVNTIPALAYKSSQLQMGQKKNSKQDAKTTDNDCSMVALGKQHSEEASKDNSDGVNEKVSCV

Compound: COc1ccc(N=Nc2ccc3[nH]cc(CCN(C)C)c3c2)cc1 [2h]
- Ki: 0.225 µM
